Reference: US9353141B2, “Galectoside inhibitors of galectins” (GALECTO BIOTECH AB, priority 2012, dated 2016)
pKd: −log10 of the molar value.

Key:
Test in all cases: Fluorescence polarization-based galectin inhibition assay
Assay type in all cases: binding
[1] = target: T1, galectin-4 (C-terminal domain) (Homo sapiens, UniProt P56470); conditions: 20° C., read-out: Calculated Kd Galectin 4 (C-terminal domain)
T1 sequence (P56470 194-323 limits assumed): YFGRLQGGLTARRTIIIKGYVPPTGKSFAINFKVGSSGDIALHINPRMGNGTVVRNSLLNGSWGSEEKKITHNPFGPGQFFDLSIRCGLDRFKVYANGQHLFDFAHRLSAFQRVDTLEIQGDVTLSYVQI
From the text: (§1) Identification of the substances was made by HRMS (Micromass Q-tof micro) and NMR (Bruker Ultrashield 400 plus, 400 MHz). Chemical shifts are reported downfield from Me4Si using residual […] (7.26 ppm) or CHD2OD (3.35 ppm) as reference. Chemical shifts and coupling constants were obtained from ^1H-NMR and proton resonances were assigned from COSY experiments. Purification was made by RF-HPLC (Beckman, system gold) or flash chromatography, using silica gel (Davisil 35-70 μm, 60 Å). Reactions were followed by TLC (Aluminum sheet, silica gel 60 F254) visualized with UV light, H2SO4 (aq) or an iso-vanillin/H2SO4/EtOH development solution. THF and Et2O were dried over sodium/benzophenone and distilled. CH2Cl2 was dried by molecular sieves (4 Å, 1.6 mm). Other solvents and reagents were commercially available and used without further purifications. Fluorescence polarization experiments were performed on a PolarStar instrument (BMG, Offenburg; Germany). Evaluation of 20-34 as inhibitors of galectins was performed by use of fluorescence polarization as described in the literature (Sorme et al., 2003a, 2004). Galectin concentrations and fluorescent probe choice and concentrations were as described in Cumpstey et al. 2005a, except for galectin-3 for which the probe tdga-probe described in Salomonsson et al. 2010 was used at 20 nM together with galectin-3 at 200 nM concentrations. Each inhibitor was tested in duplicate at several concentrations between 4 and 0.25 μM. All fluorescence polarization experiments were conducted at 20° C., except galectin-7 for which experiments were conducted at 0° C.

[2] = target: galectin-9 (N-terminal domain) (Homo sapiens, UniProt O00182); conditions: 20° C., read-out: Calculated Kd Galectin 9 (N-terminal domain)
From the text: as §1

galectin-1 = galectin-1 (Homo sapiens, UniProt P09382); conditions: 20° C., read-out: Calculated Kd Galectin 1
From the text: as §1

galectin-3 = galectin-3 (Homo sapiens, UniProt P17931); conditions: 20° C., tdga-probe 20 nM, galectin-3 200 nM, read-out: Calculated Kd Galectin 3
From the text: as §1

[3] = target: T2, galectin-4 (N-terminal domain) (Homo sapiens, UniProt P56470); conditions: fluorescence polarization, 20° C.; read-out: Calculated Kd Galectin 4 (N-terminal domain)
T2 sequence (P56470 19-150 limits assumed): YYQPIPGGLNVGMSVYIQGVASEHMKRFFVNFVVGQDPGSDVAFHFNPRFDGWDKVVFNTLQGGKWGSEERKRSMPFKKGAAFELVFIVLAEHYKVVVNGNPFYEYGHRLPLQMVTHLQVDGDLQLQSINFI
From the text: as §1

[4] = target: T3, galectin-8 (N-terminal domain) (Homo sapiens, UniProt O00214); conditions: 20° C., read-out: Calculated Kd Galectin 8 (N-terminal domain)
T3 sequence (O00214 19-152 limits assumed): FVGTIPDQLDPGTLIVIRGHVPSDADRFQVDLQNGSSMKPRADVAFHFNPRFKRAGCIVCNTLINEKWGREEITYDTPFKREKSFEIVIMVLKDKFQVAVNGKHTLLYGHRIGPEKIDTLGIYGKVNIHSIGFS
From the text: as §1

[5] = target: galectin-9 (C-terminal domain) (Homo sapiens, UniProt O00182); conditions: 20° C., read-out: Calculated Kd Galectin 9 (C-terminal domain)
From the text: as §1

galectin-7 = galectin-7 (Homo sapiens, UniProt P47929); conditions: 0° C., read-out: Calculated Kd Galectin 7
From the text: as §1

Sequence of galectin-9 (N-terminal domain) (O00182 17-148 limits assumed, species assumed): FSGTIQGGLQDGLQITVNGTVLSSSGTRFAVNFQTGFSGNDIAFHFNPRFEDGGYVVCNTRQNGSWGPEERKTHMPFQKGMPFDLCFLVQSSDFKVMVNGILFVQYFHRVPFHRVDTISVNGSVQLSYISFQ
Sequence of galectin-7 (P47929 whole entry, species assumed): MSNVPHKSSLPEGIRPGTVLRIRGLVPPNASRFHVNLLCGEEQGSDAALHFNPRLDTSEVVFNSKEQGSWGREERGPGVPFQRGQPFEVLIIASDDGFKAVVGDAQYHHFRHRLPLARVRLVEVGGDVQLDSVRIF
Sequence of galectin-3 (P17931 whole entry, species assumed): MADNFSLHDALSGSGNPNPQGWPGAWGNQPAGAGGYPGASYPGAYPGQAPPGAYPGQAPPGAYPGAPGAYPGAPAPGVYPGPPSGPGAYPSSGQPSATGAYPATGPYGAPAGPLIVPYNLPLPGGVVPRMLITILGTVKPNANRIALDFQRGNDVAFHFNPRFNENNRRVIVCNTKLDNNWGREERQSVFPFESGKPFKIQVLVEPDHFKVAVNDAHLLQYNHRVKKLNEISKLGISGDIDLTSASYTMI
Sequence of galectin-1 (P09382 whole entry, species assumed): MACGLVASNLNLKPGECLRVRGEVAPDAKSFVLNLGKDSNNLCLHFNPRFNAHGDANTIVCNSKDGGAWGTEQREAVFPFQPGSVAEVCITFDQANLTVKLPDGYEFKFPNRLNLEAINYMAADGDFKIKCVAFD
Sequence of galectin-9 (C-terminal domain) (O00182 227-355 limits assumed, species assumed): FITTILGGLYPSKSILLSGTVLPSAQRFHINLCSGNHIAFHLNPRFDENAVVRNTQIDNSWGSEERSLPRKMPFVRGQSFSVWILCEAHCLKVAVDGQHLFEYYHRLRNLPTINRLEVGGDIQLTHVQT

| Compound | pKd [1] | pKd [2] | pKd (galectin-1) | pKd (galectin-3) | pKd [3] | pKd [4] | pKd [5] | pKd (galectin-7) |
| --- | --- | --- | --- | --- | --- | --- | --- | --- |
| O=c1oc2ccc3ccccc3c2cc1CO[C@H]1[C@@H](O)[C@@H](CO)O[C@@H](S[C@@H]2O[C@H](CO)[C@H](O)[C@H](OCc3cc4c(ccc5ccccc54)oc3=O)[C@H]2O)[C@@H]1O [Compound 25, bis-{3-O-[(3H-naphtho[2,1-b]pyran-3-on-2-yl)-methyl]-β-D-galactopyranosyl}sulfane] | < 3.52 | 5.33 | 4.66 | 6.29 | 3.96 | < 3.52 |  |  |
| CC(C)(C)c1ccc2oc(=O)c(COC3C(O)[C@H](S[C@@H]4OC(CO)[C@H](O)C(OCc5cc6cc(C(C)(C)C)ccc6oc5=O)C4O)OC(CO)[C@@H]3O)cc2c1 (stereo partly drawn) [Compound 26, bis-{3-O-[(6-tert-butyl-2H-1-benzopyran-2-on-3-yl)-methyl]-β-D-galactopyranosy}sulfane] | < 3.00 | 4.41 | 4.60 | 5.09 | < 3.00 | 4.21 | 4.77 |  |
| O=c1oc2cccc(Cl)c2cc1CO[C@H]1[C@@H](O)[C@@H](CO)O[C@@H](S[C@@H]2O[C@H](CO)[C@H](O)[C@H](OCc3cc4c(Cl)cccc4oc3=O)[C@H]2O)[C@@H]1O [Compound 30, bis-{3-O-[(5-chloro-2H-1-benzopyran-2-on-3-yl)-methyl]-β-D-galactopyranosyl}sulfane] | < 3.00 | 4.27 | 4.60 | 6.77 | 4.26 | 4.55 | 4.80 |  |
| O=C(OC1C(O)[C@H](S[C@@H]2OC(CO)[C@H](O)C(OC(=O)c3ccc4ccccc4c3)C2O)OC(CO)[C@@H]1O)c1ccc2ccccc2c1 (some centres unmarked) [Compound 35, reference compound] |  | 5.55 | 4.83 | 4.97 |  |  |  | 4.32 |
| O=C(NC1C(O)[C@H](S[C@@H]2OC(CO)[C@H](O)C(NC(=O)c3ccc4ccccc4c3)C2O)OC(CO)[C@@H]1O)c1ccc2ccccc2c1 (some centres unmarked) [Compound 36, reference compound] |  | 6.14 | 5.02 | 6.80 |  | < 4.00 |  | 5.77 |
| O=c1oc2cc(O)ccc2cc1COC1C(O)[C@H](S[C@@H]2OC(CO)[C@H](O)C(OCc3cc4ccc(O)cc4oc3=O)C2O)OC(CO)[C@@H]1O (stereo partly drawn) [Compound 23, bis-{3-O-[(7-hydroxy-2H-1-benzopyran-2-on-3-yl)-methyl]-β-D-galactopyranosy}sulfane] | < 3.52 | 5.82 | 5.41 | 7.12 | 4.49 | 4.40 |  |  |
| O=c1oc2ccc(O)cc2cc1COC1C(O)[C@H](S[C@@H]2OC(CO)[C@H](O)C(OCc3cc4cc(O)ccc4oc3=O)C2O)OC(CO)[C@@H]1O (stereo partly drawn) [Compound 24, bis-{3-O-[(6-hydroxy-2H-1-benzopyran-2-on-3-yl)-methyl]-β-D-galactopyranosy}sulfane] | < 3.52 | 5.05 | 4.70 | 6.82 | 3.74 | 3.85 |  |  |
| O=c1oc2ccc(OC(F)(F)F)cc2cc1COC1C(O)[C@H](S[C@@H]2OC(CO)[C@H](O)C(OCc3cc4cc(OC(F)(F)F)ccc4oc3=O)C2O)OC(CO)[C@@H]1O (stereo partly drawn) [Compound 33, bis-{3-O-[(6-trifluoromethoxy-2H-1-benzopyran-2-on-3-yl)-methyl]-β-D-galactopyranosy}sulfane] | < 3.30 | 4.54 | 4.08 | 6.02 | < 3.30 | 3.96 | 4.68 |  |
| O=c1oc2ccc(Cl)cc2cc1COC1C(O)[C@H](S[C@@H]2OC(CO)[C@H](O)C(OCc3cc4cc(Cl)ccc4oc3=O)C2O)OC(CO)[C@@H]1O (stereo partly drawn) [Compound 27, bis-{3-O-[(6-chloro-2H-1-benzopyran-2-on-3-yl)-methyl]-β-D-galactopyranosy}sulfane] | 4.00 | < 3.70 | 5.10 | 5.22 | 3.37 | 4.47 | 4.07 |  |
| Cc1ccc2cc(COC3C(O)[C@H](S[C@@H]4OC(CO)[C@H](O)C(OCc5cc6ccc(C)cc6oc5=O)C4O)OC(CO)[C@@H]3O)c(=O)oc2c1 (stereo partly drawn) [Compound 34, bis-{3-O-[(7-methyl-2H-1-benzopyran-2-on-3-yl)-methyl]-β-D-galactopyranosy}sulfane] | < 3.30 | < 3.70 | 3.70 | 5.03 | < 3.30 | < 3.15 | < 3.30 |  |
| O=c1oc2cccc(F)c2cc1CO[C@H]1[C@@H](O)[C@@H](CO)O[C@@H](S[C@@H]2O[C@H](CO)[C@H](O)[C@H](OCc3cc4c(F)cccc4oc3=O)[C@H]2O)[C@@H]1O [Compound 31, Bis-{3-O-[(5-fluoro-2H-1-benzopyran-2-on-3-yl)-methyl]-β-D-galactopyranosyl}sulfane] | 3.27 | 5.15 | 5.06 | 7.21 | 4.34 | 4.55 | 5.26 |  |
| O=c1oc2cc(F)c(F)cc2cc1COC1C(O)[C@H](S[C@@H]2OC(CO)[C@H](O)C(OCc3cc4cc(F)c(F)cc4oc3=O)C2O)OC(CO)[C@@H]1O (stereo partly drawn) [Compound 29, bis-{3-O-[(6,7-difluoro-2H-1-benzopyran-2-on-3-yl)-methyl]-β-D-galactopyranosy}sulfane] | 3.66 | 5.52 | 5.80 | 6.96 | 4.36 | 4.72 | 5.64 |  |
| O=c1oc2ccc(F)cc2cc1CO[C@H]1[C@@H](O)[C@@H](CO)O[C@@H](S[C@@H]2O[C@H](CO)[C@H](O)[C@H](OCc3cc4cc(F)ccc4oc3=O)[C@H]2O)[C@@H]1O [Compound 28, Bis-{3-O-[(6-fluoro-2H-1-benzopyran-2-on-3-yl)-methyl]-β-D-galactopyranosyl}sulfane] | < 3.00 | 5.46 | 5.47 | 7.01 | 3.74 | 4.33 | 5.10 |  |
| O=c1oc2ccc(F)c(F)c2cc1CO[C@H]1[C@@H](O)[C@@H](CO)O[C@@H](S[C@@H]2O[C@H](CO)[C@H](O)[C@H](OCc3cc4c(F)c(F)ccc4oc3=O)[C@H]2O)[C@@H]1O [Compound 32, Bis-{3-O-[(5,6-difluoro-2H-1-benzopyran-2-on-3-yl)-methyl]-β-D-galactopyranosyl}sulfane] | < 3.30 | 5.96 | 5.41 | 7.49 | 4.66 | 4.39 | 5.82 |  |
| O=c1oc2cc(Cl)ccc2cc1CO[C@H]1[C@@H](O)[C@@H](CO)O[C@@H](S[C@@H]2O[C@H](CO)[C@H](O)[C@H](OCc3cc4ccc(Cl)cc4oc3=O)[C@H]2O)[C@@H]1O [Compound 21, bis-{3-O-[(7-chloro-2H-1-benzopyran-2-on-3-yl)-methyl]-β-D-galactopyranosyl}sulfane] |  | 3.85 | 4.68 | 5.33 |  | 4.13 |  | 4.21 |
| CO[C@@H]1OC(CO)[C@H](O)C(O)C1O (stereo partly drawn) [methyl β-D-galactoside, reference compound] |  | 2.47 |  |  |  |  | 2.30 | 2.32 |
